Common to all, as to format: functional
Assay [1] has as its system Urochloa decumbens. The assay can be described thus: Phytotoxic activity against Urochloa decumbens assessed as weight of root at 5.0 x 10^-4 mol/l measured 21 days after seed sowing under greenhouse trials (reference value: 21.2 mg).
Assay [2] relates to Ipomoea grandifolia. The assay can be described thus: Phytotoxic activity against Ipomoea grandifolia assessed as root growth inhibition at 5.0 x 10^-4 mol/l measured 21 days after seed sowing under greenhouse trials (reference value: 0.0%). The settings on record: 504 h.
In assay [3] the test system is Sorghum bicolor. The assay can be described thus: Phytotoxic activity against Sorghum bicolor seedlings assessed as inhibition of radicle growth at 5x10'-4 mol/l at 28 +/-1 degC after 48 hr by acid-washed sand based radicle elongation assay (reference value: 0.0%).
For assay [4], the system named is Ipomoea grandifolia. The assay can be described thus: Phytotoxic activity against Ipomoea grandifolia assessed as weight of aerial parts at 5.0 x 10^-4 mol/l measured 21 days after seed sowing under greenhouse trials (reference value: 17.8 mg).
In assay [5] the test system is Cucumis sativus. The assay can be described thus: Phytotoxic activity against Cucumis sativus (cucumber) assessed as weight of aerial parts at 5.0 x 10^-4 mol/l measured 15 days after seed sowing under greenhouse trials (reference value: 47.0 mg).
In assay [6] the test system is Ipomoea grandifolia. The assay can be described thus: Phytotoxic activity against Ipomoea grandifolia assessed as aerial part growth inhibition at 5.0 x 10^-4 mol/l measured 21 days after seed sowing under greenhouse trials (reference value: 0.0%). The settings on record: 504 h.
The test system of assay [7] is Sorghum bicolor. The assay can be described thus: Phytotoxic activity against Sorghum bicolor assessed as root growth inhibition at 5.0 x 10^-4 mol/l measured 15 days after seed sowing under greenhouse trials (reference value: 0.0%). The settings on record: 360 h.
In assay [8] the test system is Urochloa decumbens. The assay can be described thus: Phytotoxic activity against Urochloa decumbens assessed as aerial part growth inhibition at 5.0 x 10^-4 mol/l measured 21 days after seed sowing under greenhouse trials (reference value: 0.0%). The settings on record: 504 h.
Assay [9] relates to Cucumis sativus. The assay can be described thus: Phytotoxic activity against Cucumis sativus (cucumber) seedlings assessed as inhibition of radicle growth at 5x10'-4 mol/l at 28 +/-1 degC after 48 hr by acid-washed sand based radicle elongation assay (reference value: 0.0%).
The subject of assay [10] is Cucumis sativus. The assay can be described thus: Phytotoxic activity against Cucumis sativus (cucumber) seedlings assessed as germination at 5x10'-4 mol/l at 28 +/-1 degC after 48 hr by acid-washed sand based radicle elongation assay (reference value: 100%).
Assay [11] deals with Sorghum bicolor. The assay can be described thus: Phytotoxic activity against Sorghum bicolor assessed as aerial part growth inhibition at 5.0 x 10^-4 mol/l measured 15 days after seed sowing under greenhouse trials (reference value: 0.0%). The settings on record: 360 h.
Assay [12] has as its system Urochloa decumbens. The assay can be described thus: Phytotoxic activity against Urochloa decumbens assessed as root growth inhibition at 5.0 x 10^-4 mol/l measured 21 days after seed sowing under greenhouse trials (reference value: 0.0%). The settings on record: 504 h.
The subject of assay [13] is Ipomoea grandifolia. The assay can be described thus: Phytotoxic activity against Ipomoea grandifolia assessed as weight of root at 5.0 x 10^-4 mol/l measured 21 days after seed sowing under greenhouse trials (reference value: 18.4 mg).
Assay [14] relates to Sorghum bicolor. The assay can be described thus: Phytotoxic activity against Sorghum bicolor assessed as weight of aerial parts at 5.0 x 10^-4 mol/l measured 15 days after seed sowing under greenhouse trials (reference value: 19.0 mg).
Assay [15] has as its system Urochloa decumbens. The assay can be described thus: Phytotoxic activity against Urochloa decumbens assessed as weight of aerial parts at 5.0 x 10^-4 mol/l measured 21 days after seed sowing under greenhouse trials (reference value: 22.0 mg).
In assay [16] the test system is Sorghum bicolor. The assay can be described thus: Phytotoxic activity against Sorghum bicolor seedlings assessed as germination at 5x10'-4 mol/l at 28 +/-1 degC after 48 hr by acid-washed sand based radicle elongation assay (reference value: 100%).
Assay [17] relates to Cucumis sativus. The assay can be described thus: Phytotoxic activity against Cucumis sativus (cucumber) assessed as weight of roots at 5.0 x 10^-4 mol/l measured 15 days after seed sowing under greenhouse trials (reference value: 31.0 mg).
Assay [18] has as its system Sorghum bicolor. The assay can be described thus: Phytotoxic activity against Sorghum bicolor assessed as weight of roots at 5.0 x 10^-4 mol/l measured 15 days after seed sowing under greenhouse trials (reference value: 14.0 mg).
Assay [19] relates to Sorghum bicolor. The assay can be described thus: Phytotoxic activity against Sorghum bicolor seedlings assessed as radicle length at 5x10'-4 mol/l at 28 +/-1 degC after 48 hr by acid-washed sand based radicle elongation assay (reference value: 5.1 cm).
Assay [20] has as its system Cucumis sativus. The assay can be described thus: Phytotoxic activity against Cucumis sativus (cucumber) assessed as root growth inhibition at 5.0 x 10^-4 mol/l measured 15 days after seed sowing under greenhouse trials (reference value: 0.0%). The settings on record: 360 h.
The test system of assay [21] is Cucumis sativus. The assay can be described thus: Phytotoxic activity against Cucumis sativus (cucumber) seedlings assessed as radicle length at 5x10'-4 mol/l at 28 +/-1 degC after 48 hr by acid-washed sand based radicle elongation assay (reference value: 4.8 cm).
For assay [22], the system named is Cucumis sativus. The assay can be described thus: Phytotoxic activity against Cucumis sativus (cucumber) assessed as aerial part growth inhibition at 5.0 x 10^-4 mol/l measured 15 days after seed sowing under greenhouse trials (reference value: 0.0%). The settings on record: 360 h.

Regarding `O=C1C2CCCCC1C1OC2C2OOC1O2`, the Activity in assay [1] was 8.3 mg; in [4], 9.6 mg; in assay [5] it was 34.1 mg; in assay [13], 7.4 mg; in [14], 10.4 mg; in [15], 12.3 mg. Also, the Activity is 6.9 mg in assay [17], 10.3 mg in assay [18], 2.1 cm in [19] and 1.5 cm in [21]. In addition, the inhibition at 500 µM in assay [2] was 53.6%; in assay [3] it was 59.7%; in [6], 46.5%; in [7], 26.4%; in assay [8], 44.1%; in assay [9] it was 68.5%. Also, the inhibition at 500 µM was 45.1% in [11], 60.2% in assay [12], 77.8% in assay [20] and 27.5% in assay [22]. Further, the germination % at 500 µM worked out at 100% in assay [10] and 96% in assay [16].
For `CC(=O)[C@@]12C=C[C@H](O1)[C@H]1CCCC[C@H]2C1=O`, the Activity worked out at 4.5 mg in assay [1]; 10.9 mg in [4]; 20 mg in assay [5]; 8.6 mg in [13]; 17.8 mg in assay [14]; 7.4 mg in [15]. Moreover, the Activity in assay [17] was 4.9 mg; in assay [18], 10.7 mg; in [19] it was 0.6 cm; in [21] it was 0.9 cm. The inhibition at 500 µM in assay [2] was 46.2%; in assay [3], 88.5%; in assay [6], 39.4%; in [7], 23.2%; in [8], 66.5%; in assay [9] it was 82.1%. The inhibition at 500 µM came to 6% in assay [11], 78.4% in [12], 84.1% in [20] and 57.4% in assay [22]. Also, the germination % at 500 µM in assay [10] was determined as 86%; in assay [16], 96%.

Source of the values: ChEMBL document CHEMBL3044807, “Synthesis and biological evaluation of new ozonides with improved plant growth regulatory activity” (2009).
